The values below are quoted from earlier work in patent US20140044780A1, “Extended-Release Levetiracetam and Method of Preparation” (PharmTak, Inc., priority 2012, published 2014).

As to `CC[C@@H](C(N)=O)N1CCCC1=O` (single isomer, unassigned) [Levetiracetam], the Solubility in water is on record as 104 g/100 mL.
